System: AMPKα, ACC
Experiment: AMPKα and ACC phosphorylation in tissues of DIO mice (Western blot)
Assay type: in vivo, mouse
Protocol: HepG2 (human hepatoma cell line), HEK293 (Human embryonic kidney cell line), and C2C12/L6 myoblasts were purchased from American Type Culture Collection (ATCC, Manassas, Va., USA). LKB−/− MEFs were purchased from R.A. DePinho. Rat ventricular myocytes were enzymatically isolated from the heart of adult […] by a known method. Phosphorylation of AMPK (Thr172) and ACC (Ser79) was measured by Western blot analysis using Cell Signaling Technologies and pan- and phospho-specific antibodies (Upstate Biotechnology, Inc., Lake Placid, N.Y.).
Using various proteins extracted from liver, gonadal fat (WAT), EDL and soleus muscle of DIO mice treated with a vehicle or βL for 2 days, T172 phosphorylation of AMPKα and S79 phosphorylation of ACC in each tissue were measured by Western blot analysis.
FIG. 26 is a photograph showing effects of an NQO1 activator on AMPK & ACC phosphorylation in C57BL/6 mice. In order to investigate anti-obesity effects of an NQO1 activator, the NQO1 activator was administered daily to DIO mice at a dose of 50 mg/kg via an oral route, and effects of the NQO1 activator on phosphorylation of AMPK and ACC, which play an important role in energy metabolism and lipogenesis in the liver and gonadal adipose tissues, were examined. […] Phosphorylated AMPK is believed to activate metabolism associated with energy. Whereas, it is believed that ACC, which is affected by activation of AMPK, is phosphorylated and lipogenic activity thereof is then inhibited, which will then exert some effects on lipid metabolism including inhibition of obesity.

## CC1(C)CCC2=C(O1)c1ccccc1C(=O)C2=O [βL, 2,2-Dimethyl-3,4-dihydro-2H-benzo[h]chromene-5,6-dione]
C57BL/6 DIO mice, 50 mg/kg daily, oral
  phosphorylation of AMPK and ACC in the gonadal and liver tissues: has an effect on phosphorylation of AMPK and ACC
Gonadal fat of DIO mice treated for 2 days
  S79 phosphorylation of ACC and T172 phosphorylation of AMPKα: no such effects
Liver and muscle (EDL, Soleus) of DIO mice treated for 2 days
  S79 phosphorylation of ACC and T172 phosphorylation of AMPKα: increased

Source: patent publication US20140106387A1, “METHOD FOR CONTROLLING NAD(P)/NAD(P)H RATIO BY OXIDOREDUCTASE” (MD BIOALPHA CO., LTD., priority 2006, published 2014)
